Reference: patent publication US20100233676A1, “HIGH AFFINITY FLUOROCHROME BINDING PEPTIDES” (priority 2007, published 2010)

Columns and labels:
[1] = test system: IQSPHFF peptide (SEQ ID NO:1), displayed on phage; experiment: Binding of IQSPHFF phage to BSA-conjugated fluorochromes; conditions: FIG. 3A
Description: FIG. 3 presents exemplary data showing molecular modeling of IQSPHFF binding to VT-680. FIG. 3A. Binding affinities of IQSPHFF phage to BSA-conjugated fluorochromes via ELISA. FIG. 3B. Schematic π-π bonding between the phenylalanines of the peptide and the indole or benzoindole subunit of VT680 FIG. 3C. […] FIG. 3D. Illustrating a possible interaction of the peptide hydrophobic isoleucine and the hydrophobic alkene of the fluorochrome.
The affinity of IQSPHFF was determined using […] for different commercially available benzindol fluorochromes (Cy 3.5, Cy 5.5, VT680 and AF750). […] FIG. 3A.
The N-hydroxysuccinimide (NHS) ester of the benzindol fluorochromes VT680, GH680, Cy3.5, Cy5.5 or AF750 (1 mg) were conjugated to bovine serum albumin (BSA 100 mg/mL; 0.3 M NaCO3 buffer, pH 8.6) under reaction conditions of approximately tenfold molar excess VT680 to BSA. BSA-fluorochrome conjugate or BSA was adsorbed (5.0 μg/0.1 ml well, w/vol) overnight to wells of a Nunc Maxisorp plage (Nunc, Rochester, N.Y.). Supernatants were discarded and washed twice with PBS and blocked (5% BSA, 0.3 M NaCO3, pH 8.6, room temperature, 45 min). […]
Readout was depicted as the mean difference between absorbances in the BSA-fluorochrome containing wells and the BSA-only (negative control) wells. […]

[2] = test system: HT1080 cells; experiment: In vitro cell labeling of HT1080 cells, fluorescence plate reader; assay type: cell-based; conditions: free (unconjugated) peptide
Description: HT1080 […] cells (20,000 cells/well) were washed 3× with PBS to remove media then incubated with 0.1 mL of […] of Ac-IQSPHFF-NHS peptide or vehicle (PBS with 1% DMSO) for 1 hour at 37° C. Subsequent to incubation, cells were washed then incubated for 1 hour at 37° C. in the dark with 1 nmole of GH680 or 1 nmole of GH680+5 nmoles of underivatized peptide (competition experiment). Cells were then washed 6× with PBS+0.1% Tween 20 and analyzed via fluorescence plate reader GeminiXS (Molecular Devices). The IQSPHFF peptide sequence was covalently conjugated onto HT1080 cells and incubated with 5 nM of NIRF (VT680). Cells conjugated with IQSPHFF bound VT680>120-fold better than cells not conjugated with IQSPHFF. In addition, free (unconjugated) IQSPHFF peptide was able to compete for 98% of the binding of fluorochrome to peptide labeled cells, indicating the specificity of the interaction. FIG. 8A.

Substance | affinity of IQSPHFF, relative between fluorochromes [1] | competition of fluorochrome binding to peptide labeled cells by free peptide [2] [%]
Cy5.5 | approximately four-fold less biding than VT680 | –
IQSPHFF | – | 98
